In ChEMBL document CHEMBL1201862, “PubChem BioAssay data set” (2004):
Activity calls are given as the source filed them.

Key:
[1] = Luminescence-based cell-based high throughput dose response assay to identify activators of the DAF-12 from the parasite S. stercoralis (ssDAF-12).; assay type: functional
[2] = biological target: T1, Oxysterols receptor LXR-beta (Homo sapiens, UniProt P55055); experiment: LXR agonists, Gal4 luciferase reporter, dose response, counter-screen for ssDAF-12 agonist project, cell-based, luminescence, HEK293, S. stercoralis campaign (AID 720737); assay type: functional; conditions: read-out: IC50 (the source's name)
T1 sequence (P55055 whole entry): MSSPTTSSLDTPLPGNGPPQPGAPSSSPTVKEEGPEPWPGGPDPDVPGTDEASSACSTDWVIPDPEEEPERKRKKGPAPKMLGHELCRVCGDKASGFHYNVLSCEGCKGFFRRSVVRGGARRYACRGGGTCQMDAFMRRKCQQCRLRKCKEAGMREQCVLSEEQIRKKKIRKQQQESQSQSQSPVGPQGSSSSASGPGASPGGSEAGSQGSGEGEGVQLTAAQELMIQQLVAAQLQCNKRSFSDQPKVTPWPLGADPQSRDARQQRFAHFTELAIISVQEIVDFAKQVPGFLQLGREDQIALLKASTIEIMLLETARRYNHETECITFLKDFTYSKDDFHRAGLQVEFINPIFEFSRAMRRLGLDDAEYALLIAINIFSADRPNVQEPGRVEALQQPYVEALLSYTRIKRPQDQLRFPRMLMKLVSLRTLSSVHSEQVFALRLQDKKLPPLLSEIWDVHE

[3] = biological target: T1, Oxysterols receptor LXR-beta; assay type: functional, cell-based
[4] = cells
[5] = biological target: Glucose-6-phosphate 1-dehydrogenase (Homo sapiens, UniProt P11413); experiment: inhibition of Homo sapiens G6PD, dose series – biochemical, fluorescence, selectivity assay for P. falciparum G6PD inhibitor project, dose response (AID 504792); assay type: functional
[6] = test system: Vero; experiment: viability of Vero cells under compound – cytotoxicity control for flavivirus capping enzyme inhibitors (AID 588742); assay type: functional; conditions: Chlorocebus sabaeus
[7] = biological target: Genome polyprotein (dengue virus type 2, UniProt P29990); experiment: flavivirus cap methylation enzyme inhibition – biochemical, confirmation dose response, primary screen (AID 588689); assay type: functional
[8] = biological target: T2, Probable nicotinate-nucleotide adenylyltransferase (Staphylococcus aureus (strain N315), UniProt P65502); assay type: functional, Staphylococcus aureus subsp. aureus N315;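 as to IC50 Mean: confirmatory dose-response retesting of NadD inhibitor hits first found in an ultra-high-throughput screen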
[9] = biological target: T2, Probable nicotinate-nucleotide adenylyltransferase; assay type: functional, Staphylococcus aureus subsp. aureus N315; conditions: read-out: IC50_Mean
[10] = biological target: Protein Tat (Human immunodeficiency virus type 1 group M subtype B (isolate HXB2)(HIV-1), UniProt P04608); assay type: functional;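 also: tat binding to TAR RNA read out by fluorescence polarization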
[11] = viability loss in THP-1 monocytes – THP-1 cells, cytotoxicity control for Vif-APOBEC3G degradation inhibitor project, dose response (AID 1117359); assay type: functional; conditions: THP-1
[12] = test system: HeLa; experiment: ATP-based viability loss in HeLa cells – cell-based, CellTiter-Glo luminescence, cherry-pick samples, cytotoxicity control for MITF activator project, dose response (AID 540259); assay type: functional; conditions: Homo sapiens
[13] = biological target: T3, DNA repair and recombination protein RAD54-like (Homo sapiens, UniProt Q92698); experiment: RAD54 Holliday junction migration blockers – biochemical, fluorescence, cherry-picked samples, dose series, confirmation (AID 651657); assay type: functional
T3 sequence (Q92698 whole entry): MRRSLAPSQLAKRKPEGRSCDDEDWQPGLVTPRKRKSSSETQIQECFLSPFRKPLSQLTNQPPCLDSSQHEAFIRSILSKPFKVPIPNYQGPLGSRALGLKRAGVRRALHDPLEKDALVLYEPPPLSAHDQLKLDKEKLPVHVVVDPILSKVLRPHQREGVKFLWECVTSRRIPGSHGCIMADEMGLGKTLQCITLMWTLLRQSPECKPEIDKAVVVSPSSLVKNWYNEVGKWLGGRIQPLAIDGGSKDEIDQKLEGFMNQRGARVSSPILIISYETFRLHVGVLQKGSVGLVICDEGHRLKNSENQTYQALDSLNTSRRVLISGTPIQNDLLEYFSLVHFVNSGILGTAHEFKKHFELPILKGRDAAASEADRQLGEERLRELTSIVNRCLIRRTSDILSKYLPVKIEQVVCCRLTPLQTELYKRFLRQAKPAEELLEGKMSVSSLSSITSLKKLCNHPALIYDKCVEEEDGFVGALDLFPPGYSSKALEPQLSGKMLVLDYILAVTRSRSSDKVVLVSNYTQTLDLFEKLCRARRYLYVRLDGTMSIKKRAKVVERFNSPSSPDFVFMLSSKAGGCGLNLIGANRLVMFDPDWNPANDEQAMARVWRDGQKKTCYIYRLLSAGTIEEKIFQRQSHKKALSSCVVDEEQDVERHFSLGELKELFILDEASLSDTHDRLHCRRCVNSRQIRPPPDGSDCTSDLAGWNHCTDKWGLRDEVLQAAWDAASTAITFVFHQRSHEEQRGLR

[14] = viability loss in HepG2 liver cells – cell-based, ATP luminescence, cherry-pick, set 6, cytotoxicity control, dose response (AID 1053125); assay type: functional
[15] = biological target: E3 ubiquitin-protein ligase UHRF1 (Homo sapiens, UniProt Q96T88); experiment: Counterscreen for inhibitors of 5-meCpG-binding domain protein 2 (MBD2): TRFRET-based biochemical high throughput dose response assay to identify inhibitors of binding of ubiquitin-like with PHD and ring finger domains 1 (UHRF1) to methylated oligonucleotide.
[16] = cells; conditions: A549
[17] = cells; conditions: HEK293
[18] = biological target: RNA-editing ligase 1, mitochondrial (Trypanosoma brucei brucei, UniProt P86926); experiment: inhibition of trypanosome RNA editing ligase – biochemical, fluorescence, Trypanosoma brucei, dose response (AID 1117295); assay type: functional
[19] = viability loss in A549 lung cells – cell-based, 24 h, CellTiter-Glo luminescence, cherry-picks, cytotoxicity control, dose response (AID 1053115); assay type: functional; conditions: A549, 24 h
[20] = lung carcinoma cell viability loss – CellTiter-Glo luminescence, dry powder, set 17, dose response (AID 1117284); assay type: functional, cell-based, A549
[21] = Orthopox viral replication plaque formation Measured in Cell-Based and Microorganism Combination System Using Imaging - 2142-05_Inhibitor_Dose_DryPowder_Activity.; assay type: functional
[22] = IC50 of insulin release inhibition, rat insulinoma INS-1E line, 5 mM glucose, cell-based (AID 1117331); assay type: functional
[23] = BioA aminotransferase inhibition, coupled fluorescent readout – biochemical, coupled fluorescence displacement, 20-point, dry powder, dose response (AID 743357); assay type: functional
[24] = biological target: G-protein coupled receptor 183 (Homo sapiens, UniProt P32249); experiment: SAR confirmation of small molecule antagonists of the EBI2 receptor via a luminescent beta-arrestin assa.; assay type: functional
[25] = luciferase reporter signal suppression in cells – H4 neuroglioma cells, luminescence, dose response (AID 1990); assay type: functional, cell-based
[26] = test system: BJ; experiment: BJ-TERT fibroblast viability loss – cell-based, RAS-independent, luminescence, dose response (AID 1933); assay type: functional; conditions: Homo sapiens
[27] = alpha-synuclein stem-loop luciferase translation blockers – H4 neuroglioma cells, luminescence, confirmation (AID 1988); assay type: functional, cell-based
[28] = test system: BJ; experiment: cells; assay type: functional, cell-based; conditions: Homo sapiens
[29] = microbe, parasite or virus in culture; assay type: functional; conditions: Mycobacterium tuberculosis
[30] = test system: BJ; experiment: BJ-TERT-LT-ST fibroblast viability loss – cell-based, RAS-independent, luminescence, dose response (AID 1935); assay type: functional; conditions: Homo sapiens;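 also: BJ fibroblasts immortalized with TERT plus LT and ST oncogenes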
[31] = DRD fibroblast viability loss – cell-based, non-viral oncogenic, luminescence, dose response (AID 1934); assay type: functional; conditions: Homo sapiens
[32] = test system: BJ; experiment: growth inhibition of engineered Ras-driven BJ cells – cell-based, alamar blue fluorescence, cherrypicked samples, dose response (AID 2631); assay type: functional; conditions: Homo sapiens;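 also: confirmatory dose-response assay in RAS-dependent BJ fibroblasts engineered with TERT, LT and ST, with cytotoxicity read by fluorescence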
[33] = test system: P388/ADR; experiment: cells; assay type: functional; conditions: Mus musculus
[34] = test system: SN12K1; experiment: cells; assay type: functional; conditions: Homo sapiens
[35] = test system: P388; experiment: cells; assay type: functional; conditions: Mus musculus
[36] = rise of 2N DNA cells, HeLa – IC50, dose response (AID 1117349); assay type: functional, cell-based
[37] = CellTiter-Glo luminescence survival assay, SW480 colon tumor line, concentration-response curve, half-maximal inhibitory concentration (AID 1117338); assay type: functional
[38] = RKO cell viability reduction, dose response, CellTiter-Glo luminescence (AID 1117322); assay type: functional
[39] = cytotoxicity toward HCT116 cells – cell-based, CellTiter-Glo luminescence, IC50, dose response (AID 1117332); assay type: functional; conditions: HCT-116
[40] = SNU-C1 cell viability reduction, dose response, CellTiter-Glo luminescence (AID 1117323); assay type: functional, cell-based
[41] = cytotoxicity toward Colo320 cells – cell-based, CellTiter-Glo luminescence, IC50, dose response (AID 1117334); assay type: functional; conditions: COLO 320
[42] = rise of 4N DNA cells, HeLa – IC50, dose response (AID 1117351); assay type: functional, cell-based
[43] = cytotoxicity toward HT-29 cells – cell-based, CellTiter-Glo luminescence, IC50, dose response (AID 1117330); assay type: functional
[44] = Reduced DLD-1 viability, concentration-response, CellTiter-Glo luminescence (AID 1117352); assay type: functional
[45] = HCT116 cell viability decrease, GSK3B pretreatment – CellTiter-Glo, IC50, dose response (AID 1117339); assay type: functional; conditions: HCT-116

T2 sequence (P65502 whole entry): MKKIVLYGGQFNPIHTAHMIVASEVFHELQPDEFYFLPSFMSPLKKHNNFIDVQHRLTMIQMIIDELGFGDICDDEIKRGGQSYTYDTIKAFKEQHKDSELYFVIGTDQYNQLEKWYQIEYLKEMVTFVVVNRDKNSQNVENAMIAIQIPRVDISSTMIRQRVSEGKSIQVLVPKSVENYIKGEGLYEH
Chain of Protein Tat (P04608 whole entry): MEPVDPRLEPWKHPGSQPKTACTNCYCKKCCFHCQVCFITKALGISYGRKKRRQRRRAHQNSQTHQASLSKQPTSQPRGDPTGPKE
Chain of Genome polyprotein (P29990 2492-3391 limits assumed): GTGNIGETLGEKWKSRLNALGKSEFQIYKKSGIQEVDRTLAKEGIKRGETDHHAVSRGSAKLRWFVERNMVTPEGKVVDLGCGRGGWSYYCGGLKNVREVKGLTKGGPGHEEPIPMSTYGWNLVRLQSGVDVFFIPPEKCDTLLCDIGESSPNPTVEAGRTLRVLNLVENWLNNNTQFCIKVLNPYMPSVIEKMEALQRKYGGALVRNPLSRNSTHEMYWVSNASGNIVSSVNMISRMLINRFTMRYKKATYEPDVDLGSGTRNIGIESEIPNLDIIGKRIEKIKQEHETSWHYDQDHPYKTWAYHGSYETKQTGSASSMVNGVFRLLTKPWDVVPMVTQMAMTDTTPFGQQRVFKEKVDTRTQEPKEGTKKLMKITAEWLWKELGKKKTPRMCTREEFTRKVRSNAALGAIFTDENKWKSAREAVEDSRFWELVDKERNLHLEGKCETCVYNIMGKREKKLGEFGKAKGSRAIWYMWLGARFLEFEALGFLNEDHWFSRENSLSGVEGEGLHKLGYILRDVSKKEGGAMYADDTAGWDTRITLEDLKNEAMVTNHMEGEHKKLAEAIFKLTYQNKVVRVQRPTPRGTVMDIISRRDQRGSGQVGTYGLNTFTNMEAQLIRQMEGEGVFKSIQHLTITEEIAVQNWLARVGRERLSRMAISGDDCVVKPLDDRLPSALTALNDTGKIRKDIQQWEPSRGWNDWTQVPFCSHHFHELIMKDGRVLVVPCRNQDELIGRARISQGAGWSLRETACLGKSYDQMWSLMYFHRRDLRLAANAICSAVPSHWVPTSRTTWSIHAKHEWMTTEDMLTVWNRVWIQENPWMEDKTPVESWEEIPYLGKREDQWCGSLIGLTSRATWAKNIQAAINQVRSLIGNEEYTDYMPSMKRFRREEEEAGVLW
Chain of G-protein coupled receptor 183 (P32249 whole entry): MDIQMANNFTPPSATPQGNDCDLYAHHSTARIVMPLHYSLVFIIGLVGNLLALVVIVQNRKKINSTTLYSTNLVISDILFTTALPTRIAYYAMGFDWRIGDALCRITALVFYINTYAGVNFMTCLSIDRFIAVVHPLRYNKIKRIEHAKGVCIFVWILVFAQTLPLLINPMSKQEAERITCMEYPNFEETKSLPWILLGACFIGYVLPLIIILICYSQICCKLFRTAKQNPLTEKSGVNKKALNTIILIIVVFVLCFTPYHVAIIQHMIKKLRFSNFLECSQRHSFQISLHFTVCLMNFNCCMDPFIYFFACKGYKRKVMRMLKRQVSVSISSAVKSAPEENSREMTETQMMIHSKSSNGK
Chain of Glucose-6-phosphate 1-dehydrogenase (P11413 whole entry): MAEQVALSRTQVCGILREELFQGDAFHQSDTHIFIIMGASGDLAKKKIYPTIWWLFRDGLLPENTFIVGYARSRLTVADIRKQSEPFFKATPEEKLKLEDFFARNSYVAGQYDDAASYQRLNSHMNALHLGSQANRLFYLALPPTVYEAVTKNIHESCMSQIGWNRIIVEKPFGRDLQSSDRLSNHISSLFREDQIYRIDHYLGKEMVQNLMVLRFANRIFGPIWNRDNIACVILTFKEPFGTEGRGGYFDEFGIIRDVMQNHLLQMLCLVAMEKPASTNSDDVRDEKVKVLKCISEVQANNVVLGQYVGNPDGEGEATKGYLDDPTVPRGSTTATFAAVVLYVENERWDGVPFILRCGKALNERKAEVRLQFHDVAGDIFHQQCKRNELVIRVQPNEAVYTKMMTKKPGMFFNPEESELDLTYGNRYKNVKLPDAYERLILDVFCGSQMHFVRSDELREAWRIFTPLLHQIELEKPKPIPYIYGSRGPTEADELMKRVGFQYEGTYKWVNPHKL
Chain of E3 ubiquitin-protein ligase UHRF1 (Q96T88 whole entry, the tested form may be a part): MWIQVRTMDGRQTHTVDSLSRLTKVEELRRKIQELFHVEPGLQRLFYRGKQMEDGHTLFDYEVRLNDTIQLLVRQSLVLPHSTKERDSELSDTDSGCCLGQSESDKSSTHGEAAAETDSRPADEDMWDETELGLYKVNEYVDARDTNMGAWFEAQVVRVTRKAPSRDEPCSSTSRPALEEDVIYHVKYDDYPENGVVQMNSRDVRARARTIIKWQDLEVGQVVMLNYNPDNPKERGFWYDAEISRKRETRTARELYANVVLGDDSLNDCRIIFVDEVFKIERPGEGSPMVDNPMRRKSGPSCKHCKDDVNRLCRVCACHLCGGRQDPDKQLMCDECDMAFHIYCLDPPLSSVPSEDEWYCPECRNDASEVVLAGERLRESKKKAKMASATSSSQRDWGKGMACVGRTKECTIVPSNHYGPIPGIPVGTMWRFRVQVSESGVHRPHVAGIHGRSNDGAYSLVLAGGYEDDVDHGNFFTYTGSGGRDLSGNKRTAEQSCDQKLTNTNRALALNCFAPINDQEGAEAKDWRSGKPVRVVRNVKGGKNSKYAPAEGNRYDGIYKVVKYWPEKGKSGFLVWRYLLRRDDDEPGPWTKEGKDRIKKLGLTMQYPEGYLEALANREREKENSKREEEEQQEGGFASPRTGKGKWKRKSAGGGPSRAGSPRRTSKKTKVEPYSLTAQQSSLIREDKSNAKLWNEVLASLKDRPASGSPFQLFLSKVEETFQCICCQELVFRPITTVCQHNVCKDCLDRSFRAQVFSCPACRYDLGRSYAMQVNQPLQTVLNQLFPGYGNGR
Chain of RNA-editing ligase 1, mitochondrial (P86926 whole entry): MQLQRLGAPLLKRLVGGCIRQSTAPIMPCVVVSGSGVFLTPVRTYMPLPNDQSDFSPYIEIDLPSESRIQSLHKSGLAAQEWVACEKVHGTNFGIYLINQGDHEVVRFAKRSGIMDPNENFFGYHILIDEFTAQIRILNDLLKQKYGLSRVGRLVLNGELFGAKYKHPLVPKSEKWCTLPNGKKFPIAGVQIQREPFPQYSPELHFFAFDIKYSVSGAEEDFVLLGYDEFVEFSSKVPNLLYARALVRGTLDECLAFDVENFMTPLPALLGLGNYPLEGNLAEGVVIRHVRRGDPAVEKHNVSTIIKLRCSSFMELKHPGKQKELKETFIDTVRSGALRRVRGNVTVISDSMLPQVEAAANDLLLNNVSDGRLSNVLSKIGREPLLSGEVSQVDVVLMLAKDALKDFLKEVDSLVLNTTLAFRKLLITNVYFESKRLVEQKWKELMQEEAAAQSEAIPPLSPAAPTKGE

Cc1ccc(-c2cc3nc(C)cc(C)n3n2)cc1
IC50 [1]: > 67.5 µM (inactive)
EC50 [2]: > 67.5 µM (inactive)
EC50 [3]: > 67.5 µM (inactive)
EC50 [4]: > 67.5 µM (inactive)

O=C1OC(c2ccc3ccccc3c2O)(c2ccc3ccccc3c2O)c2ccccc21
IC50 [5]: > 80 µM (inactive)
CC50 [6]: > 40 µM (active)
IC50 [7]: 19 µM (active)
IC50 [8]: 7.05 µM (active)
IC50 [9]: 20.9 µM (active)
IC50 [10]: > 100 µM (active)
CC50 [11]: > 40 µM (active)

COc1cc2sc3cc(NCC[C@@H]4CCCN4C)ccc3c(=O)c2cc1OC
AC50 [12]: 191 µM (active)
AC50 [13]: 6.9 µM (active)
AC50 [14]: 17.6 µM (active)
IC50 [15]: 26.2 µM (inactive)
AC50 [16]: 35.5 µM (active)
AC50 [17]: 38 µM (active)

CCCCN(C)C(=O)c1ccc(Nc2nc(C(N)Cc3ccc(C(F)(F)F)cc3)cs2)nc1 (stereo unspecified)
IC50 [18]: > 96.6 µM (inactive)

C[C@@H](O)C#Cc1ccc2c(c1)O[C@@H](CN(C)Cc1ccc(-c3ccccc3)cc1)[C@@H](C)CN([C@@H](C)CO)S2(=O)=O
AC50 [19]: > 60 µM (inactive)
AC50 ([20]; A549): > 52 µM (inactive)
AC50 ([20]; a549): 49.4 µM (active)
AC50 [21]: 8.84 µM (active)

CN(C)CC[C@@H](c1ccc(Cl)cc1)c1ccccn1
IC50 [22]: 17.7 µM (inactive)

CS(=O)(=O)c1ccc(N2CCN(C(=O)c3ccc4c(c3)OCO4)CC2)cc1
AC50 [23]: 15.1 µM (active)

CCCc1ccc(S(=O)(=O)N2CCN(C(=O)/C=C/c3ccc(F)cc3)CC2)cc1
IC50 [24]: 0.0241 µM (active)

Sc1ncnc2nc[nH]c12 [MERCAPTOPURINE ANHYDROUS]
EC50 [25]: 13 µM (active)
EC50 [26]: > 150 µM (not active)
EC50 [27]: 11.6 µM (active)
EC50 [28]: 4.33 µM (inconclusive)
CC50 [29]: > 40 µM (active)
EC50 [30]: > 150 µM (not active)
EC50 [31]: 5.35 µM (active)
EC50 [32]: > 133 µM (inactive)
GI50 [33]: 19.5 µM (inactive)
GI50 [34]: 1.29 µM (inactive)
GI50 [35]: 8.89 µM (inactive)
IC50 [36]: > 10 µM (inactive)
IC50 [37]: 1.04 µM (active)
IC50 [38]: 0.659 µM (active)
IC50 [39]: 0.259 µM (active)
IC50 [40]: > 20 µM (inactive)
IC50 [41]: 1.3 µM (active)
IC50 [42]: > 10 µM (inactive)
IC50 [43]: 0.635 µM (active)
IC50 [44]: 0.26 µM (active)
IC50 [45]: 1.42 µM (active)
